Assay results taken from US8741906B2 (priority 2011, dated 2014).

Tests used:
human CB2 receptors = molecular target: T1, human CB2 receptors (Homo sapiens, UniProt P34972); assay: functional cAMP assay, human CB2; assay type: cell-based; settings: CHO cells expressing human CB2, cAMP; read-out: human CB2 EC50
T1 construct: expressed in transfected cells; host or cells: CHO cells
Method in brief: (§1)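 CHO-hCB1/hCB2 cells, KRB + 1 mM IBMX preincubation 30 min 30 °C; cpd 30 min 30 °C; lysis + TR-FRET cAMP detection, 2 h RT; cAMP from std curve; EC50.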

human CB1 receptors = molecular target: T2, human CB1 receptors (Homo sapiens, UniProt P21554); assay: functional cAMP assay, human CB1; assay type: cell-based; settings: CHO cells expressing human CB1, cAMP; read-out: human CB1 EC50
T2 construct: expressed in transfected cells; host or cells: CHO cells
T2 sequence (P21554 whole entry): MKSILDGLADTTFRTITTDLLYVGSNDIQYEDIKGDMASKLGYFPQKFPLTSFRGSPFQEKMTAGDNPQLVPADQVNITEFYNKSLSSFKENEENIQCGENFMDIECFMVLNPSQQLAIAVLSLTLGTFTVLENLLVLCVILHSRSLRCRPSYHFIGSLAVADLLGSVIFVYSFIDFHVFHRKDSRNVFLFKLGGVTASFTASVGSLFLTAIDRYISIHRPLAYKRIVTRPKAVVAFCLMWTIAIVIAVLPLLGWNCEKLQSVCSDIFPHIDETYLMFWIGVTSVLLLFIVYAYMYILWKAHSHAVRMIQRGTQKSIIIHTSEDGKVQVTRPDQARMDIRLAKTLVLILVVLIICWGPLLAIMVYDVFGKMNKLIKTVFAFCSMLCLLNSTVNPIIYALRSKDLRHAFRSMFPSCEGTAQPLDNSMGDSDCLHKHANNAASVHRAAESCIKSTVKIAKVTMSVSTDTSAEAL
Method in brief: as §1

T1 sequence (P34972 whole entry): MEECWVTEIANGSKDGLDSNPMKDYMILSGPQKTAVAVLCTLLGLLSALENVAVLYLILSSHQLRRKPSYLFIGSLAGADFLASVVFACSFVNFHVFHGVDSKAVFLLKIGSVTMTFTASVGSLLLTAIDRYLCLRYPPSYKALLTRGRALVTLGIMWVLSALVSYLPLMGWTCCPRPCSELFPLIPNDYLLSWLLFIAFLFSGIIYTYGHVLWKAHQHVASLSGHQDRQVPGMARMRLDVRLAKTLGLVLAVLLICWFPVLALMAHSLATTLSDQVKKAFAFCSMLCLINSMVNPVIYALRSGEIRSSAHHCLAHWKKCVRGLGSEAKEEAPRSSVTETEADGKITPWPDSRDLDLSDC

Structure (SMILES)	EC50 (human CB2 receptors) [nM]	EC50 (human CB1 receptors) [nM]
COc1ccccc1Cn1nnc2c(N3CCC(F)(F)C3)nc(C(C)(C)C)nc21 [Example 81, 5-tert-Butyl-7-(3,3-difluoro-pyrrolidin-1-yl)-3-(2-methoxy-benzyl)-3H-[1,2,3]triazolo[4,5-d]pyrimidine]	0.1	68.9
CC(C)(C)c1nc(N2CCC(F)(F)C2)c2nnn(Cc3ccccc3OC(F)(F)F)c2n1 [Example 82, 5-tert-Butyl-7-(3,3-difluoro-pyrrolidin-1-yl)-3-(2-trifluoromethoxy-benzyl)-3H-[1,2,3]triazolo[4,5-d]pyrimidine]	0.2	252
CC(C)(C)c1nc(N2CCC(F)(F)C2)c2nnn(Cc3ccccc3C#N)c2n1 [Example 83, 2-[5-tert-Butyl-7-(3,3-difluoro-pyrrolidin-1-yl)-[1,2,3]triazolo[4,5-d]pyrimidin-3-ylmethyl]-benzonitrile]	0.1	283
CC(C)(C)c1nc(N2CCC(F)(F)C2)c2nnn(CCc3ccccc3)c2n1 [Example 84, 5-tert-Butyl-7-(3,3-difluoro-pyrrolidin-1-yl)-3-phenethyl-3H-[1,2,3]triazolo[4,5-d]pyrimidine]	1.2	451
C[C@H](c1ccccc1Cl)n1nnc2c(N3CCC(F)(F)C3)nc(C(C)(C)C)nc21 [Example 86]	0.4	371
C[C@@H](c1ccccc1Cl)n1nnc2c(N3CCC(F)(F)C3)nc(C(C)(C)C)nc21 [Example 87]	1	270
CC(C)(C)c1nc(N2CCC(F)(F)C2)c2nnn(CC(O)c3ccccc3)c2n1 (stereo not shown) [Example 88, 2-[5-tert-Butyl-7-(3,3-difluoro-pyrrolidin-1-yl)-[1,2,3]triazolo[4,5-d]pyrimidin-3-yl]-1-phenyl-ethanol]	0.9	391
CC(C)(C)c1nc(N2CCC(F)(F)C2)c2nnn(Cc3cccc(F)c3Cl)c2n1 [Example 89, 5-tert-Butyl-3-(2-chloro-3-fluoro-benzyl)-7-(3,3-difluoro-pyrrolidin-1-yl)-3H-[1,2,3]triazolo[4,5-d]pyrimidine]	0.3	463
CC(C)(C)c1nc(N2CCC(F)(F)C2)c2nnn(Cc3cc(F)ccc3Cl)c2n1 [Example 90, 5-tert-Butyl-3-(2-chloro-5-fluoro-benzyl)-7-(3,3-difluoro-pyrrolidin-1-yl)-3H-[1,2,3]triazolo[4,5-d]pyrimidine]	0.5	370
CC(C)(C)c1nc(N2C[C@@H](O)C[C@@H]2CO)c2nnn(Cc3ccccc3Cl)c2n1 [Example 93, (3S,5R)-1-[5-tert-Butyl-3-(2-chloro-benzyl)-3H-[1,2,3]triazolo[4,5-d]pyrimidin-7-yl]-5-hydroxymethyl-pyrrolidin-3-ol]	4.5	> 10000
CC(C)(C)c1nc(N2CC(F)(F)C[C@@H]2CO)c2nnn(Cc3ccccc3Cl)c2n1 [Example 94, {(R)-1-[5-tert-Butyl-3-(2-chloro-benzyl)-3H-[1,2,3]triazolo[4,5-d]pyrimidin-7-yl]-4,4-difluoro-pyrrolidin-2-yl}-methanol]	1	> 10000
CC(C)(C)c1nc(N2CCC(F)(F)C2)c2nnn(Cc3c(Cl)ccc(F)c3Cl)c2n1 [Example 96, 5-tert-Butyl-3-(2,6-dichloro-3-fluoro-benzyl)-7-(3,3-difluoro-pyrrolidin-1-yl)-3H-[1,2,3]triazolo[4,5-c]pyrimidine]	0.1	167
CC(C)(C)c1nc(N2CCC(F)(F)C2)c2nnn(Cc3cccnc3Cl)c2n1 [Example 97, 5-tert-Butyl-3-(2-chloro-pyridin-3-ylmethyl)-7-(3,3-difluoro-pyrrolidin-1-yl)-3H-[1,2,3]triazolo[4,5-c]pyrimidine]	0.1	62.3
CC(C)(C)c1nc(N2CCC(F)(F)C2)c2nnn(Cc3ncccc3Cl)c2n1 [Example 98, 5-tert-Butyl-3-(3-chloro-pyridin-2-ylmethyl)-7-(3,3-difluoro-pyrrolidin-1-yl)-3H-[1,2,3]triazolo[4,5-d]pyrimidine]	0.1	98
CC(C)(C)c1nc(N2CCC(F)(F)C2)c2nnn(Cc3cc(Cl)cnc3Cl)c2n1 [Example 99, 5-tert-Butyl-3-(2,5-dichloro-pyridin-3-ylmethyl)-7-(3,3-difluoro-pyrrolidin-1-yl)-3H-[1,2,3]triazolo[4,5-d]pyrimidine]	0.2	497
CC(C)(C)c1nc(N2CCC(F)(F)C2)c2nnn(Cc3nc(Cl)ccc3Cl)c2n1 [Example 100, 5-tert-Butyl-3-(3,6-dichloro-pyridin-2-ylmethyl)-7-(3,3-difluoro-pyrrolidin-1-yl)-3H-[1,2,3]triazolo[4,5-d]pyrimidine]	0.1	110

Structure (SMILES)	EC50 (human CB2 receptors) [nM]	EC50 (human CB1 receptors) [nM]
Cc1nonc1Cn1nnc2c(N3CCC(F)(F)C3)nc(C(C)(C)C)nc21 [Example 101, 5-tert-Butyl-7-(3,3-difluoro-pyrrolidin-1-yl)-3-(4-methyl-furazan-3-ylmethyl)-3H-[1,2,3]triazolo[4,5-d]pyrimidine]	0.1	> 10000
Cc1noc(Cn2nnc3c(N4CCC(F)(F)C4)nc(C(C)(C)C)nc32)n1 [Example 102, 5-tert-Butyl-7-(3,3-difluoro-pyrrolidin-1-yl)-3-(3-methyl-[1,2,4]oxadiazol-5-ylmethyl)-3H-[1,2,3]triazolo[4,5-d]pyrimidine]	0.6	> 10000
CC(C)(C)c1nc(N2CCC(F)(F)C2)c2nnn(CCc3ccccc3Cl)c2n1 [Example 103, 5-tert-Butyl-3-[2-(2-chloro-phenyl)-ethyl]-7-(3,3-difluoro-pyrrolidin-1-yl)-3H-[1,2,3]triazolo[4,5-d]pyrimidine]	0.4	415
CC(C)(C)c1nc(N2CCC(F)(F)C2)c2nnn(CCc3cccc(Cl)c3)c2n1 [Example 104, 5-tert-Butyl-3-[2-(3-chloro-phenyl)-ethyl]-7-(3,3-difluoro-pyrrolidin-1-yl)-3H-[1,2,3]triazolo[4,5-d]pyrimidine]	0.9	> 10000
CC(C)(C)c1nc(N2CCC(F)(F)C2)c2nnn(CCc3ccc(Cl)cc3)c2n1 [Example 105, 5-tert-Butyl-3-[2-(4-chloro-phenyl)-ethyl]-7-(3,3-difluoro-pyrrolidin-1-yl)-3H-[1,2,3]triazolo[4,5-d]pyrimidine]	6.5	> 10000
COc1ccc(Cn2nnc3c(N4CC[C@H](O)C4)nc(C(C)(C)C)nc32)cc1 [Example 106, (S)-1-[5-tert-Butyl-3-(4-methoxy-benzyl)-3H-[1,2,3]triazolo[4,5-d]pyrimidin-7-yl]-pyrrolidin-3-ol]	4.8	> 10000
CC(C)(C)c1nc(N2CCC(F)(F)C2)c2nnn([C@@H]3CCOC3)c2n1 [Example 108, 5-tert-Butyl-7-(3,3-difluoro-pyrrolidin-1-yl)-3-(R)-tetrahydro-furan-3-yl-3H-[1,2,3]triazolo[4,5-d]pyrimidine]	0.3	> 10000
CC(C)(C)c1nc(N2CCC(F)(F)C2)c2nnn([C@H]3CCOC3)c2n1 [Example 109, 5-tert-Butyl-7-(3,3-difluoro-pyrrolidin-1-yl)-3-(S)-tetrahydro-furan-3-yl-3H-[1,2,3]triazolo[4,5-d]pyrimidine]	0.5	> 10000
CC(C)(C)c1nc(N2CCC(F)(F)C2)c2nnn(CC(=O)c3ccccc3Cl)c2n1 [Example 110, 2-[5-tert-Butyl-7-(3,3-difluoro-pyrrolidin-1-yl)-[1,2,3]triazolo[4,5-d]pyrimidin-3-yl]-1-(2-chloro-phenyl)-ethanone]	0.2	250
CC(C)(C)c1nc(N2CCC(F)(F)C2)c2nnn(Cc3c(F)ccc(Cl)c3Cl)c2n1 [Example 111, 5-tert-Butyl-3-(2,3-dichloro-6-fluoro-benzyl)-7-(3,3-difluoro-pyrrolidin-1-yl)-3H-[1,2,3]triazolo[4,5-d]pyrimidine]	0.2	137
CC(C)(C)c1nc(N2CCC(F)(F)C2)c2nnn(Cc3ccccc3S(C)(=O)=O)c2n1 [Example 112, 5-tert-Butyl-7-(3,3-difluoro-pyrrolidin-1-yl)-3-(2-methanesulfonyl-benzyl)-3H-[1,2,3]triazolo[4,5-d]pyrimidine]	0.1	4.7
CC(C)(C)c1nc(N2CCC(F)(F)C2)c2nnn(CCc3ccccn3)c2n1 [Example 113, 5-tert-Butyl-7-(3,3-difluoro-pyrrolidin-1-yl)-3-(2-pyridin-2-yl-ethyl)-3H-[1,2,3]triazolo[4,5-d]pyrimidine]	0.2	201
CC1(Cn2nnc3c(N4CCC(F)(F)C4)nc(C(C)(C)C)nc32)COC1 [Example 114, 5-tert-Butyl-7-(3,3-difluoro-pyrrolidin-1-yl)-3-(3-methyl-oxetan-3-ylmethyl)-3H-[1,2,3]triazolo[4,5-d]pyrimidine]	0.4	> 10000
CC(C)(C)c1nc(N2CCC(F)(F)C2)c2nnn(CC(=O)c3cccc(Cl)c3)c2n1 [Example 115, 2-[5-tert-Butyl-7-(3,3-difluoro-pyrrolidin-1-yl)-[1,2,3]triazolo[4,5-d]pyrimidin-3-yl]-1-(3-chloro-phenyl)-ethanone]	0.4	> 10000
CC(C)(C)c1nc(N2CCC(F)(F)C2)c2nnn(CC(=O)c3ccc(Cl)cc3)c2n1 [Example 116, 2-[5-tert-Butyl-7-(3,3-difluoro-pyrrolidin-1-yl)-[1,2,3]triazolo[4,5-d]pyrimidin-3-yl]-1-(4-chloro-phenyl)-ethanone]	3	> 10000
CC(C)(C)c1nc(N2CCC(F)(F)C2)c2nnn(CC(=O)c3cccnc3)c2n1 [Example 117, 2-[5-tert-Butyl-7-(3,3-difluoro-pyrrolidin-1-yl)-[1,2,3]triazolo[4,5-d]pyrimidin-3-yl]-1-pyridin 3-yl-ethanone]	0.2	> 10000
